Results published in ChEMBL document CHEMBL1949551, “Design and synthesis of 8-substituted benzamido-phenylxanthine derivatives as MAO-B inhibitors” (Bioorg Med Chem Lett, 2012).

Experiments:
[1] = target: T1, Amine oxidase [flavin-containing] B (Mus musculus, UniProt Q8BW75); test: Inhibition of MAO-B in mouse cerebral homogenate using kynuramine as substrate after 30 mins by fluorimetry in the presence of MOA-A inhibitor clorgyline
T1 sequence (Q8BW75 whole entry): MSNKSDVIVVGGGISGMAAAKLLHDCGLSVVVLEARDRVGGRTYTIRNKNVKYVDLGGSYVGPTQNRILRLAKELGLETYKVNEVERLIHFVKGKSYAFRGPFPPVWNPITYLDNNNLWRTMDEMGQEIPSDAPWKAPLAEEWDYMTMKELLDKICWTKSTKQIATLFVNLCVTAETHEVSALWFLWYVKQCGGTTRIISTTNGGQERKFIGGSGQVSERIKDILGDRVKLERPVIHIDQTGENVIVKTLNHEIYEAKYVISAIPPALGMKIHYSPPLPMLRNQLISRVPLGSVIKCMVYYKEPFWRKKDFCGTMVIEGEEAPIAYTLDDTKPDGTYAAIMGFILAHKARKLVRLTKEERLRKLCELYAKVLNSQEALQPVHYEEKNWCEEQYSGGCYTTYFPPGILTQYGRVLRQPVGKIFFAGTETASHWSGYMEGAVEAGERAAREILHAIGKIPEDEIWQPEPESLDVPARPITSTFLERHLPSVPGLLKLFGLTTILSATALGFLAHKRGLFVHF

[2] = target: T1, Amine oxidase [flavin-containing] B; test: Inhibition of MAO-B in mouse cerebral homogenate using kynuramine as substrate after 30 mins by fluorimetry in the presence of MOA-A inhibitor clorgyline relative to control; conditions: 0.5 h
[3] = target: T1, Amine oxidase [flavin-containing] B; test: Ratio of compound Ki to KW-6002 Ki for MAO-B in mouse cerebral homogenate

| SMILES | IC50 [1] [µM] | Ki [1] [nM] | inhibition (INH) [2] [%] | Ratio Ki [3] |
| --- | --- | --- | --- | --- |
| Cc1ccc(C(=O)Nc2ccc(-c3nc4c([nH]3)c(=O)n(C)c(=O)n4C)cc2)cc1 | 13.9 | 2770 | 42.3 | – |
| COc1ccc(C(=O)Nc2ccc(-c3nc4c([nH]3)c(=O)n(C)c(=O)n4C)cc2)cc1 | 17.2 | 3970 | 32.1 | – |
| Cn1c(=O)c2c(nc(-c3ccc(NC(=O)c4ccccc4)cc3)n2C)n(C)c1=O | 8.9 | 260 | 67.4 | 42 |
| Cc1ccc(C(=O)Nc2ccc(-c3nc4c(c(=O)n(C)c(=O)n4C)n3C)cc2)cc1 | 11.3 | 1630 | 53.7 | – |
| COc1ccc(C(=O)Nc2ccc(-c3nc4c(c(=O)n(C)c(=O)n4C)n3C)cc2)cc1 | 10.7 | 1180 | 58.2 | – |
| Cn1c(=O)c2[nH]c(-c3cccc(NC(=O)c4ccccc4)c3)nc2n(C)c1=O | 18.9 | 4210 | 27.9 | – |
| Cc1ccc(C(=O)Nc2cccc(-c3nc4c([nH]3)c(=O)n(C)c(=O)n4C)c2)cc1 | 14 | 2870 | 41.6 | – |
| COc1ccc(C(=O)Nc2cccc(-c3nc4c([nH]3)c(=O)n(C)c(=O)n4C)c2)cc1 | 16 | 3490 | 35.1 | – |
| Cn1c(=O)c2c(nc(-c3cccc(NC(=O)c4ccccc4)c3)n2C)n(C)c1=O | 14.5 | 2950 | 40.5 | – |
| Cc1ccc(C(=O)Nc2cccc(-c3nc4c(c(=O)n(C)c(=O)n4C)n3C)c2)cc1 | 16.7 | 3560 | 34.4 | – |
| COc1ccc(C(=O)Nc2cccc(-c3nc4c(c(=O)n(C)c(=O)n4C)n3C)c2)cc1 | 17.8 | 3920 | 30.8 | – |
